Measurements reported in patent US8952024B2, “Herbicidal pyrimidone derivatives” (E I du Pont de Nemours and Company, priority 2009, dated 2015).

Assays:
Assay in all cases: Test B pre-/postemergence plant response
Format in all cases: in vivo
[1] = tested on: ragweed (common ragweed, Ambrosia elatior)
In short: (§1)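 Compound in solvent + surfactant applied pre-em (loam/sand) or post-em (plants 2–18 cm, peat medium); greenhouse hold 13–15 days; visual 0–100 control score.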

[2] = tested on: downy bromegrass (Bromus tectorum)
In short: as §1

[3] = tested on: cocklebur (Xanthium strumarium)
In short: as §1

[4] = tested on: blackgrass (Alopecurus myosuroides)
In short: as §1

[5] = tested on: Surinam grass (Brachiaria decumbens)
In short: as §1

[6] = tested on: Italian ryegrass (Lolium multiflorum)
In short: as §1

[7] = tested on: wheat (Triticum aestivum)
In short: as §1

wild oat (Avena fatua) = tested on: wild oat (Avena fatua)
In short: as §1

[8] = tested on: bermudagrass (Cynodon dactylon)
In short: as §1

[9] = tested on: woolly cupgrass (Eriochloa villosa)
In short: as §1

[10] = tested on: morningglory (Ipomoea coccinea)
In short: as §1

[11] = tested on: large crabgrass (Digitaria sanguinalis)
In short: as §1

kochia (Kochia scoparia) = tested on: kochia (Kochia scoparia)
In short: as §1

[12] = 250 g ai/ha, Preemergence, 0 to 100 scale
[13] = Postemergence, 31 g ai/ha, scale 0 to 100 (0 no effect, 100 complete control)
[14] = Postemergence, 62 g ai/ha, scale 0 (no effect) to 100 (complete control), 13 to 15 days
[15] = Postemergence, 125 g ai/ha, visual rating after 13 to 15 days, scale 0 (no effect) to 100 (complete control)
[16] = Postemergence, 250 g ai/ha, scale 0 to 100
[17] = Preemergence, 31 g ai/ha, scale 0 to 100 (0 no effect, 100 complete control)
[18] = Preemergence, 62 g ai/ha, scale 0 to 100 (0 no effect, 100 complete control)
[19] = Preemergence, 125 g ai/ha, 0 to 100 scale
[20] = 31 g ai/ha, postemergence, scale 0 to 100, 0 is no effect, 100 is complete control
[21] = 62 g ai/ha, postemergence, 0 is no effect, 100 is complete control, 13 to 15 days
[22] = Postemergence, 250 g ai/ha, scale 0 to 100 (0 no effect, 100 complete control)

Cc1ccccc1-n1c(-c2ccccc2)ncc(C(=O)C2=C(O)CCCC2=O)c1=O [Compound 12]
Plant response rating, Ragweed [1, 12]: 100
Plant response rating, Ragweed [1, 13]: 100
Plant response rating, Ragweed [1, 14]: 100
Plant response rating, Ragweed [1, 15]: 100
Ragweed plant response rating [1, 16]: 100
Plant response rating, Ragweed [1, 17]: 90
Plant response rating, Ragweed [1, 18]: 98
Ragweed plant response rating [1, 19]: 100
Plant response rating, Bromegrass, Downy [2, 12]: 0
Plant response rating, Bromegrass, Downy [2, 13]: 5
Plant response rating, Bromegrass, Downy [2, 14]: 10
Plant response rating, Bromegrass, Downy [2, 15]: 20
Bromegrass, Downy plant response rating [2, 16]: 20
Plant response rating, Bromegrass, Downy [2, 17]: 0
Plant response rating, Bromegrass, Downy [2, 18]: 0
Bromegrass, Downy plant response rating [2, 19]: 0
Plant response rating, Cocklebur [3, 12]: 100
Plant response rating, Cocklebur [3, 13]: 70
Plant response rating, Cocklebur [3, 14]: 98
Plant response rating, Cocklebur [3, 15]: 100
Cocklebur plant response rating [3, 16]: 100
Plant response rating, Cocklebur [3, 17]: 25
Plant response rating, Cocklebur [3, 18]: 80
Cocklebur plant response rating [3, 19]: 98
Plant response rating, Blackgrass [4, 12]: 10
Plant response rating, Blackgrass [4, 13]: 10
Plant response rating, Blackgrass [4, 14]: 10
Plant response rating, Blackgrass [4, 15]: 10
Blackgrass plant response rating [4, 16]: 20
Plant response rating, Blackgrass [4, 17]: 0
Plant response rating, Blackgrass [4, 18]: 0
Blackgrass plant response rating [4, 19]: 5
Plant response rating, Surinam Grass [5, 12]: 100
Plant response rating, Surinam Grass [5, 13]: 25
Plant response rating, Surinam Grass [5, 14]: 55
Plant response rating, Surinam Grass [5, 15]: 65
Surinam Grass plant response rating [5, 16]: 85
Plant response rating, Surinam Grass [5, 17]: 35
Plant response rating, Surinam Grass [5, 18]: 60
Surinam Grass plant response rating [5, 19]: 95
Plant response rating, Ryegrass, Italian [6, 12]: 0
Plant response rating, Ryegrass, Italian [6, 13]: 0
Plant response rating, Ryegrass, Italian [6, 14]: 0
Plant response rating, Ryegrass, Italian [6, 15]: 5
Ryegrass, Italian plant response rating [6, 16]: 5
Plant response rating, Ryegrass, Italian [6, 17]: 0
Plant response rating, Ryegrass, Italian [6, 18]: 0
Ryegrass, Italian plant response rating [6, 19]: 0
Plant response rating, Wheat [7, 12]: 0
Plant response rating, Wheat [7, 13]: 0
Plant response rating, Wheat [7, 14]: 0
Plant response rating, Wheat [7, 15]: 0
Wheat plant response rating [7, 16]: 0
Plant response rating, Wheat [7, 17]: 0
Plant response rating, Wheat [7, 18]: 0
Wheat plant response rating [7, 19]: 0
Plant response rating, Oat, Wild (wild oat (Avena fatua); [12]): 5
Plant response rating, Oat, Wild (wild oat (Avena fatua); [13]): 0
Plant response rating, Oat, Wild (wild oat (Avena fatua); [14]): 5
Plant response rating, Oat, Wild (wild oat (Avena fatua); [15]): 20
Oat, Wild plant response rating (wild oat (Avena fatua); [16]): 20
Plant response rating, Oat, Wild (wild oat (Avena fatua); [17]): 0
Plant response rating, Oat, Wild (wild oat (Avena fatua); [18]): 0
Oat, Wild plant response rating (wild oat (Avena fatua); [19]): 0
Plant response rating, Bermudagrass [8, 12]: 100
Plant response rating, Bermudagrass [8, 13]: 65
Plant response rating, Bermudagrass [8, 14]: 85
Plant response rating, Bermudagrass ([8]; Postemergence, 125 g ai/ha, scale 0 to 100 (0 no effect, 100 complete control), 13 to 15 days): 98
Bermudagrass plant response rating [8, 16]: 100
Plant response rating, Bermudagrass [8, 17]: 100
Plant response rating, Bermudagrass [8, 18]: 100
Bermudagrass plant response rating [8, 19]: 100
Plant response rating, Cupgrass, Woolly [9, 12]: 85
Plant response rating, Cupgrass, Woolly [9, 13]: 55
Plant response rating, Cupgrass, Woolly [9, 14]: 60
Plant response rating, Cupgrass, Woolly [9, 15]: 70
Cupgrass, Woolly plant response rating [9, 16]: 80
Plant response rating, Cupgrass, Woolly [9, 17]: 0
Plant response rating, Cupgrass, Woolly [9, 18]: 10
Cupgrass, Woolly plant response rating [9, 19]: 75
Plant response rating, Morningglory [10, 12]: 100
Plant response rating, Morningglory [10, 13]: 15
Plant response rating, Morningglory [10, 14]: 60
Plant response rating, Morningglory [10, 15]: 70
Morningglory plant response rating [10, 16]: 95
Plant response rating, Morningglory [10, 17]: 40
Plant response rating, Morningglory [10, 18]: 55
Morningglory plant response rating [10, 19]: 85
Plant response rating, Crabgrass, Large [11, 12]: 100
Plant response rating, Crabgrass, Large [11, 13]: 65
Plant response rating, Crabgrass, Large [11, 14]: 75
Plant response rating, Crabgrass, Large [11, 15]: 80
Crabgrass, Large plant response rating [11, 16]: 90
Plant response rating, Crabgrass, Large [11, 17]: 0
Plant response rating, Crabgrass, Large [11, 18]: 90
Crabgrass, Large plant response rating [11, 19]: 100
Plant response rating, Kochia (kochia (Kochia scoparia); [12]): 100
Plant response rating, Kochia (kochia (Kochia scoparia); [13]): 20
Plant response rating, Kochia (kochia (Kochia scoparia); [14]): 20
Plant response rating, Kochia (kochia (Kochia scoparia); [15]): 60
Kochia plant response rating (kochia (Kochia scoparia); [16]): 65
Plant response rating, Kochia (kochia (Kochia scoparia); [17]): 15
Plant response rating, Kochia (kochia (Kochia scoparia); [18]): 100
Kochia plant response rating (kochia (Kochia scoparia); [19]): 100

CC(C)n1c(-c2ccccc2)ncc(C(=O)C2=C(O)CCCC2=O)c1=O [Compound 95]
Plant response rating, Ragweed [1, 20]: 75
Ragweed plant response rating (0 to 100 scale) [1, 21]: 80
Plant response rating, Ragweed [1, 22]: 95
Plant response rating, Bromegrass, Downy [2, 20]: 0
Bromegrass, Downy plant response rating (0 to 100 scale) [2, 21]: 0
Plant response rating, Bromegrass, Downy [2, 15]: 0
Plant response rating, Bromegrass, Downy [2, 22]: 0
Plant response rating, Cocklebur [3, 20]: 70
Cocklebur plant response rating (0 to 100 scale) [3, 21]: 95
Plant response rating, Cocklebur [3, 15]: 100
Plant response rating, Cocklebur [3, 22]: 100
Plant response rating, Blackgrass [4, 20]: 0
Blackgrass plant response rating (0 to 100 scale) [4, 21]: 0
Plant response rating, Blackgrass [4, 15]: 0
Plant response rating, Blackgrass [4, 22]: 5
Plant response rating, Surinam Grass [5, 20]: 45
Surinam Grass plant response rating (0 to 100 scale) [5, 21]: 45
Plant response rating, Surinam Grass [5, 22]: 70
Plant response rating, Ryegrass, Italian [6, 20]: 0
Ryegrass, Italian plant response rating (0 to 100 scale) [6, 21]: 0
Plant response rating, Ryegrass, Italian [6, 22]: 0
Plant response rating, Wheat [7, 20]: 0
Wheat plant response rating (0 to 100 scale) [7, 21]: 0
Plant response rating, Wheat [7, 22]: 0
Plant response rating, Oat, Wild (wild oat (Avena fatua); [20]): 0
Oat, Wild plant response rating (0 to 100 scale) (wild oat (Avena fatua); [21]): 0
Plant response rating, Oat, Wild (wild oat (Avena fatua); [22]): 0
Plant response rating, Bermudagrass [8, 20]: 45
Bermudagrass plant response rating (0 to 100 scale) [8, 21]: 75
Plant response rating, Bermudagrass [8, 15]: 75
Plant response rating, Bermudagrass [8, 22]: 90
Plant response rating, Cupgrass, Woolly [9, 20]: 45
Cupgrass, Woolly plant response rating (0 to 100 scale) [9, 21]: 55
Plant response rating, Cupgrass, Woolly [9, 15]: 65
Plant response rating, Cupgrass, Woolly [9, 22]: 65
Plant response rating, Morningglory [10, 20]: 100
Morningglory plant response rating (0 to 100 scale) [10, 21]: 100
Plant response rating, Morningglory [10, 22]: 100
Plant response rating, Crabgrass, Large [11, 20]: 45
Crabgrass, Large plant response rating (0 to 100 scale) [11, 21]: 65
Plant response rating, Crabgrass, Large [11, 15]: 75
Plant response rating, Crabgrass, Large [11, 22]: 80
Plant response rating, Kochia (kochia (Kochia scoparia); [20]): 80
Kochia plant response rating (0 to 100 scale) (kochia (Kochia scoparia); [21]): 100
Plant response rating, Kochia (kochia (Kochia scoparia); [22]): 100
